{
  "source": "paper PMC4630399",
  "about": "“Charge-Based Inhibitors of Amylin Fibrillization and Toxicity” (Journal of Diabetes Research, 2015)",
  "key": {"[1]": {"experiment": "TEM of aggregates formed by peptides alone", "assay_type": "physicochemical", "details": "80 μM peptide, 2 days, 20 mM phosphate pH 7.4, 37°C, no agitation", "experimental": "(§1) Samples containing 80 μM concentrations of WT-amylin and the three analogs were incubated without agitation at a temperature of 37°C in 20 mM phosphate buffer (pH 7.4). For the inhibition reactions, samples contained WT-amylin at an 80 μM concentration, together with 160 μM of Arg-1, Arg-2, or Mem-T analogs. Aliquots from the reactions were removed after 2 days for TEM imaging. The aliquots were blotted onto carbon-coated 400-mesh Maxtaform copper grids (Ted Pella Inc. Redding, CA) for 1–3 min, followed by negative staining with 1% uranyl acetate. TEM images were recorded on an FEI Tecnai G^2 Spirit BioTwin transmission electron microscope equipped with an AMT XR-40 camera."}, "WT-amylin [2]": {"molecular_target": "T1, WT-amylin (Homo sapiens, UniProt P10997)", "T1 sequence (P10997 34-70 limits assumed)": "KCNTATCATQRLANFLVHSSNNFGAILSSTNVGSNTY", "experiment": "ThT assay, inhibition of WT-amylin fibrillization by analogs added in trans", "assay_type": "biochemical", "design": "purchased Biopeptide (San Diego, CA); host or cells: solid-phase synthesis", "details": "20 μM WT-amylin", "experimental": "The time course of fibrillization in solution was monitored using 100–200 μL amylin samples, contained in white polystyrene clear bottom 96-well plates (Corning Inc., Corning, NY). Plates were covered with a clear polyester sealing tape (Fisher Scientific, Agawam, MA) to prevent evaporation. Stock solutions of 1.1 mM WT-amylin and inhibitor peptides were prepared in 100% DMSO, which dissolves and disaggregates amylin fibrils, and were stored at −80°C when not in use. […] For experiments using larger 400 μM concentrations of Arg-2 and Mem-T, the solutions were prepared by diluting 100% DMSO stock solutions of 20 mM peptide to a final DMSO concentration of 2% (v/v). Amylin was the last component added to the samples for the kinetic reactions, in order to reduce the dead time for the experiments. The plates were incubated at 25°C without agitation. Fluorescence intensity was recorded at 2 min intervals with excitation at 440 nm and emission at 490 nm on a Fluoroskan Ascent 2.5 fluorescence plate reader. Fibrillization reactions for the peptides alone were performed in triplicate and for analog-peptide inhibition of WT-amylin in duplicate, to estimate experimental uncertainties in kinetic parameters."}, "[3]": {"tested_on": "WT-amylin cytotoxicity towards MIN6 mouse model of pancreatic β-cells", "experiment": "Protection of MIN6 cells against WT-amylin cytotoxicity (Alamar Blue)", "details": "MIN6 cells, 80 μM WT-amylin, up to 2 : 1 inhibitor : WT-amylin", "experimental": "(§2) The stock solutions were diluted with FBS-free DMEM and sonicated continuously for 5 min at 75% amplitude before use. FBS was subsequently added to a concentration of 15% (v/v), giving final amylin concentrations of 40, 80, and 160 μM. The final DMSO concentration for all cytotoxicity experiments was 1% (v/v).\n(§3) Cytotoxicity was measured using the mouse insulinoma 6 (MIN6) cell line model of β-pancreatic cells, which were a gift from Dr. Anil Rustgi (University of Pennsylvania). Cells were seeded at a density of 20,000 per 100 μL in black clear-bottom 96-well plates. The cells were grown in DMEM with 15% FBS, 25 mM glucose, 2 mM L-glutamine, […] sodium pyruvate, 55 μM β-mercaptoethanol, 1000 units/mL penicillin, and 100 μg/mL streptomycin, for 20 h at 37°C in a humidified incubator with 5% CO2. […] The cells were incubated for another 24 h followed by the addition of 10% (v/v) of the redox indicator dye Alamar Blue at the concentration supplied by the manufacturer (Invitrogen). Fluorescence, due to the reduction of Alamar Blue by viable cells, was measured after 6 h, using excitation and emission wavelengths of 544 and 590 nm, respectively. Cell viability was calculated from the ratio of Alamar Blue fluorescence in treated to untreated cells. Uncertainties were calculated as the SEMs of triplicate measurements."}, "WT-amylin [4]": {"molecular_target": "T1, WT-amylin", "experiment": "TEM of WT-amylin fibrils formed in presence of inhibitor peptides", "assay_type": "biochemical", "design": "purchased Biopeptide (San Diego, CA); host or cells: solid-phase synthesis", "details": "80 μM WT-amylin with 160 μM analog, 20 mM sodium phosphate pH 7.4, 1% DMSO, 37°C, 24 h", "experimental": "as §1\nFigure 8 TEM images of fibrils formed from 80 μM WT amylin in the presence or absence of inhibitor peptides. (a) WT amylin alone, (b) with 160 μM Arg-1, (c) with 160 μM Arg-2, and (d) with 160 μM Mem-T. Aliquots were removed for TEM imaging 24 h after the fibrillization reactions were started. Reactions were carried out in 20 mM sodium phosphate (pH 7.4), 1% DMSO (v/v), at 37°C."}, "[5]": {"experiment": "ThT assay of fibrillization kinetics, peptides alone", "assay_type": "physicochemical", "experimental": "The time course of fibrillization in solution was monitored using 100–200 μL amylin samples, contained in white polystyrene clear bottom 96-well plates (Corning Inc., Corning, NY). Plates were covered with a clear polyester sealing tape (Fisher Scientific, Agawam, MA) to prevent evaporation. Stock solutions of 1.1 mM WT-amylin and inhibitor peptides were prepared in 100% DMSO, which dissolves and disaggregates amylin fibrils, and were stored at −80°C when not in use. Starting from the 1.1 mM stock solutions in 100% DMSO, samples for fibrillization reactions were prepared to contain 20 μM amylin and 10 μM ultrapure ThT, in 20 mM sodium phosphate buffer, pH 7.4, and a final DMSO concentration of 2% (v/v). For experiments using larger 400 μM concentrations of Arg-2 and Mem-T, the solutions were prepared by diluting 100% DMSO stock solutions of 20 mM peptide to a final DMSO concentration of 2% (v/v). Amylin was the last component added to the samples for the kinetic reactions, in order to reduce the dead time for the experiments. The plates were incubated at 25°C without agitation. Fluorescence intensity was recorded at 2 min intervals with excitation at 440 nm and emission at 490 nm on a Fluoroskan Ascent 2.5 fluorescence plate reader. Fibrillization reactions for the peptides alone were performed in triplicate and for analog-peptide inhibition of WT-amylin in duplicate, to estimate experimental uncertainties in kinetic parameters."}, "[6]": {"tested_on": "MIN6 models of pancreatic β-cells", "details": "neutral pH, cited from earlier work", "text": "(§4) In type 2 diabetes, the positively charged 37-residue hormone amylin misfolds into cationic fibrils which have been implicated in the destruction of the pancreatic β-cells that make insulin and amylin, thus contributing to pathology. Amylin is a particularly favorable system for investigating the roles of charges in fibrillization, since the core of the intermolecular β-sheet fibril structure has only one pH-titratable group, His18 [9]. The histidine acts as an electrostatic switch, inhibiting fibrillization in its charged state at acidic pH and favoring fibrillization in its uncharged ... || The motivation for the studies described in this work was to see if electrostatic charge repulsion could be exploited to design new types of inhibitors of amylin fibrillization and cytotoxicity. […] Moreover, addition of a single charged lysine residue ..."}, "WT-amylin fibrillization": {"tested_on": "WT-amylin fibrillization", "details": "cited from earlier work", "text": "as §4, with “|| An IC50 analysis of the inhibition data was performed to obtain quantitative information (Figure 5).” for “||”, “Arg-1 concentration-dependence” for “motivation”, “inhibition of WT-amylin fibril elongation rates gives an IC50 value of 0.6 ± 0.5 μM. For Arg-2 and Mem-T, the IC50 values are ~10 μM (Figure 5(a)). In addition” for “studies described in this work was”, “effecting elongation rates, Arg-2 increases the lag times for WT-amylin fibrillization with an IC50” for “see if electrostatic charge repulsion could be exploited to design new types”, “~0.1 μM.” for “inhibitors of amylin fibrillization and cytotoxicity.”"}, "[7]": {"design": "method as in 2 sources, ref 21 = [21]; PMID 23016872; doi:10.1021/bi300574r; 21 Marek P. J. Patsalo V. Green D. F. Raleigh D. P. Ionic strength effects on amyloid formation by amylin are a complicated interplay among debye screening, ion selectivity, and hofmeister effects Bio ||| ref 7 = [7]; PMID 22206987; doi:10.1016/j.jmb.2011.12.032; 7 Cao P. Tu L.-H. Abedini A. Sensitivity of amyloid formation by human islet amyloid polypeptide to mutations at residue 20 Journal of Molecular Biology 2012 421 2-3 282 295 10.1016/j.jmb.2011.12.032", "details": "compared to WT-amylin; cited from earlier work", "text": "In type 2 diabetes, the positively charged 37-residue hormone amylin misfolds into cationic fibrils which have been implicated in the destruction of the pancreatic β-cells that make insulin and amylin, thus contributing to pathology. Amylin is a particularly favorable system for investigating the roles of charges in fibrillization, since the core of the intermolecular β-sheet fibril structure has only one pH-titratable group, His18 [9]."}, "[8]": {"tested_on": "MIN6 mouse model of pancreatic β-cells", "details": "melittin compared with 160 μM WT-amylin", "experimental": "as §2, §3"}, "[9]": {"details": "400 μM peptide, 150 mM NaCl, pH 7.4, 2% DMSO, 25°C, ThT, triplicate"}},
  "note": "“Also recorded” adds a separate entry of the source. Where two headings read alike, the source gives them in different places. Positions of bridges follow the written chain, without caps; N, C: chain ends. Residues, ends and D or L forms follow the SMILES beside them. No end group written: not given here.",
  "data": [
    {"compound": "CC[C@H](C)[C@H](NC(=O)[C@H](C)NC(=O)CNC(=O)[C@H](Cc1ccccc1)NC(=O)[C@H](CC(N)=O)NC(=O)[C@H](CC(N)=O)NC(=O)[C@H](CO)NC(=O)[C@H](CO)NC(=O)[C@H](Cc1c[nH]cn1)NC(=O)[C@H](CC(=O)O)NC(=O)[C@H](CC(=O)O)NC(=O)[C@H](CC(=O)O)NC(=O)[C@H](CC(N)=O)NC(=O)[C@H](C)NC(=O)[C@H](CC(=O)O)NC(=O)[C@H](CCCNC(=N)N)NC(=O)[C@H](CC(=O)O)NC(=O)[C@@H](NC(=O)[C@H](C)NC(=O)[C@@H]1CSSC[C@H](NC(=O)[C@@H](N)CCCCN)C(=O)N[C@@H](CC(N)=O)C(=O)N[C@@H]([C@@H](C)O)C(=O)N[C@@H](C)C(=O)N[C@@H]([C@@H](C)O)C(=O)N1)[C@@H](C)O)C(=O)N[C@@H](CC(C)C)C(=O)N[C@@H](CO)C(=O)N[C@@H](CO)C(=O)N[C@H](C(=O)N[C@@H](CC(N)=O)C(=O)N[C@H](C(=O)NCC(=O)N[C@@H](CO)C(=O)N[C@@H](CC(N)=O)C(=O)N[C@H](C(=O)N[C@@H](Cc1ccc(O)cc1)C(N)=O)[C@@H](C)O)C(C)C)[C@@H](C)O", "note": "[Mem-T] (H-KCNTATCATDRDANDDDHSSNNFGAILSSTNVGSNTY-NH2; disulfide 2-7 (inferred); N-terminus assumed)", "values": [
      {"measurement": "aggregate morphology by TEM", "setting": "[1]", "result": "only detected amorphous aggregates with nonfibrillar morphologies; also recorded: few if any fibrils"},
      {"measurement": "reduction in elongation rates relative to arginine-peptides", "setting": "WT-amylin [2]", "result": "only about half of that for the arginine-peptides"},
      {"measurement": "effect on WT-amylin fibrillization lag time", "setting": "WT-amylin [2]; 150 mM NaCl", "result": "decrease at high concentrations; also recorded: causes a reduction in lag times at high concentrations of the analog (>10 μM); also recorded: decreases the lag times"},
      {"measurement": "reduction of WT-amylin fibril elongation rate", "setting": "WT-amylin [2]; 150 mM NaCl, analog 0.001 to 120 μM", "result": 4, "unit": "fold"},
      {"measurement": "salt dependence of inhibition of elongation rate", "setting": "WT-amylin [2]; varying NaCl", "result": "salt effects on elongation rates are reduced close to the uncertainties of the measurements"},
      {"measurement": "salt dependence of lag time shortening", "setting": "WT-amylin [2]; varying NaCl", "result": "shows a strong salt concentration dependence"},
      {"measurement": "protection against WT-amylin cytotoxicity (overall)", "setting": "[3]", "result": "failed to protect against WT-amylin cytotoxicity"},
      {"measurement": "TEM of WT-amylin fibrils formed with inhibitor", "setting": "WT-amylin [4]", "result": "indistinguishable from those formed with WT-amylin alone"},
      {"measurement": "fibrillization detected (ThT)", "setting": "[5]; 20 μM peptide, 150 mM NaCl, pH 7.4, 25°C", "result": "failed to fibrillize"},
      {"measurement": "fibril elongation rate", "setting": "[5]; [9]", "result": "6.1 ± 1.4 × 10^−6 min^−1"},
      {"measurement": "fibrillization lag time", "setting": "[5]; [9]", "result": "10,000 min"},
      {"measurement": "fibrillization detected (ThT)", "setting": "[5]; 400 μM peptide, absence of salt", "result": "only a very weak signal for fibrils was detected"},
      {"measurement": "fibrillization detected (ThT)", "setting": "[5]; 400 μM peptide, pH 7.4, 2% DMSO, 25°C", "result": "weak fibrillization"},
      {"measurement": "fibrillization detected (ThT)", "setting": "[5]; 400 μM peptide, physiological salt concentrations and above", "result": "Fibrillization was stimulated"}
    ]},
    {"compound": "H18R: H18R mutant of amylin (KCNTATCATQRLANFLVRSSNNFGAILSSTNVGSNTY; not fully specified (C-terminus); ends and bridges not checked; UniProt P10997 34-70, looked up, variant H18R)", "values": [
      {"measurement": "cytotoxicity to β-cells", "setting": "[6]", "result": "not cytotoxic to β-cells"},
      {"measurement": "cytotoxicity to β-cells", "setting": "[6]; listed as Substitution of a positively charged arginine at position 18", "result": "lowers cytotoxicity to MIN6 models of pancreatic β-cells compared to WT-amylin"}
    ]},
    {"compound": "S20K: amylin with the S20K mutation (KCNTATCATQRLANFLVHSKNNFGAILSSTNVGSNTY; not fully specified (C-terminus); ends and bridges not checked; UniProt P10997 34-70, looked up, variant S20K)", "values": [
      {"measurement": "inhibition of WT-amylin fibrillization", "setting": "WT-amylin fibrillization; added in trans", "result": "inhibit fibrillization of the WT-amylin peptide; also recorded: inhibits fibrillization of WT-amylin when added in trans"},
      {"measurement": "fibrillization of mutant amylin", "setting": "[7]", "result": "much slower fibrillization; also recorded: fibrillizes much more slowly"}
    ]},
    {"compound": "heparin", "values": [
      {"measurement": "effect on WT-amylin fibrillization", "setting": "WT-amylin fibrillization", "result": "enhance fibrillization of WT-amylin"}
    ]},
    {"compound": "melittin", "values": [
      {"measurement": "viability of MIN6 cells, positive control", "setting": "[8]", "result": "comparable to the value obtained with the potent toxin melittin"}
    ]}
  ]
}
